Assays:
Assay type in all cases: in vitro ADME
[1] = Bidirectional permeability in Caco-2 cells; conditions: human, Caco-2, 5 µM, alone; for efflux ratio at 60 min, 5 µM: read-out: Ratio (B/A), efflux ratio
Protocol: The Caco-2 cell culture and bidirectional permeability assays used in the study were adapted from previous studies at Takeda. Briefly, Caco-2 cells were obtained from American Type Culture Collection (ATCC) (Manassas, VA, USA) and were cultured in 175 cm^2 tissue culture T-flasks (Corning Life Sciences, Corning, NY, USA). For bidirectional permeability assays, cells were plated onto Costar 24-well culture plates (0.33 cm^2/well, […] (Corning Life Sciences, Corning, NY, USA) by adding 1 × 10^5 cells suspended in 0.2 mL of culture medium (Dulbecco’s modified Eagle’s medium [DMEM] with 0.1 mM non-essential amino acids, 2 mM L-glutamine, 4.5 g/L glucose, and 10% fetal bovine serum [FBS]) to the upper chamber of each well of the 24-well transwell plate. Cell-free culture medium (40 mL) was added to the lower chamber reservoir (Corning Life Sciences, Corning, NY, USA). The transwell plates were then incubated at 37 °C in an atmosphere of 5% CO2 for 25 days to ensure complete enterocyte-like differentiation of the cells, and the culture medium was changed every three to four days during the incubation period. Cell monolayers with transepithelial electrical resistance (TEER) values > 250 ohms × cm^2 were used for the bidirectional permeability assays.
All chemicals and reagents including control compounds were purchased from commercial sources such as Sigma-Aldrich or synthesized in house (pevonedistat and LY335979). Bidirectional transport studies were performed at 37 °C. Before each experiment, the confluent cell monolayers on transwell inserts were washed and equilibrated for 30 min with transport media (Hank’s Balanced Salt Solution [HBSS] containing 25 mM 4-(2-hydroxyethyl)-1-piperazineethanesulfonic acid [HEPES] and 10 mM glucose, pH 7.4 or 6.5). The bidirectional permeability of 5 µM of the cyclohexane derivative was assessed alone or in the presence of 5 µM LY335979, 5 µM K0143, or 10 µM Elacridar to inhibit P-gp, BCRP, and both efflux transporters, respectively. Additionally, the bi-directional permeability of 5 µM solutions of nadolol (low permeable control marker), minoxidil (high permeable marker), propranolol (high permeable marker), and pevonedistat (efflux transporter control) was also assessed. The experiment was initiated by adding a solution containing the test compounds and LY335979 to either the apical (for apical-to-basolateral [A-to-B] transport) or basolateral (for basolateral-to-apical [B-to-A] transport) compartment. Lucifer yellow (50 µM) was added to each donor chamber in the experiment to serve as a paracellular transport control and to monitor cell monolayer integrity. The apical volume was 0.2 mL and the basolateral volume was 1.0 mL. Bovine serum albumin (BSA, Sigma Aldrich) (5%) was added to the transport media on the receiver side to prevent non-specific binding of the test compound to the polystyrene well. After the addition of test compound into the donor side, […] of the receiving solution were withdrawn from the receiver side at 30 and 60 min. A […] of fresh transport media was immediately added to the receiver side at 30 and 60 min. The samples were placed into 96-well black plates (PerkinElmer Life Sciences, Boston, MA, USA) for fluorescence measurement (excitation at 450 nm and emission at 535 nm). After this measurement, the amounts of cyclohexane derivative and control compounds in each sample were quantified with liquid chromatography–mass spectrometry (LC–MS). The time course of drug transported across cell monolayers was analyzed to determine the time and rate of steady-state flux. The transport rate (total amount of drug present in the receiver chamber per unit time), Papp, and efflux ratio were calculated as described in Equations (4) and (5). […]

[2] = In vitro liver microsomal metabolism study, human; conditions: human liver microsomes
Protocol: (§1) Metabolic stability was assessed by incubating compounds in the presence of human, rat, and mouse liver microsomal fractions (Xenotech, Kansas City, KS, USA). All chemicals and reagents, including control compounds, were purchased from commercial sources such as Sigma-Aldrich (St. Louis, MO, USA) or Toronto Research Chemicals (North York, ON, Canada). Liver microsomal incubations were conducted with 100 mM phosphate buffer, 0.5 mg/mL of liver microsomal protein, 2 mM NADPH, 2.5 mM UDPGA, 3 mM MgCl2, alamethicin, and 1 μM test article for a total incubation volume of 80 µL. All reagents except the liver microsomes were mixed together and aliquoted (60 μL) into 96-well plates. The reaction was initiated by adding the microsomes (20 μL). At 0, 3, 7, 12, 20, and 30 min time points, the reactions were terminated with the addition of acetonitrile-containing carbutamide (as an internal standard). The terminated samples were then centrifuged at 2 °C to pellet the protein and the supernatant was injected onto an LC–MS. The test article was monitored for loss over time and the t1/2 was determined. The calculated t1/2 was then used as described below to determine the Eh (hepatic extraction ratio) for both human and rat.
(§2) The intrinsic clearance (CLint), hepatic clearance (CLh), and hepatic extraction ratio (Eh) were calculated using the equations below. CLint = (0.693/t1/2 in vitro) × (mL incubation volume/mg microsomal protein) × (X mg of microsomal protein/gram of liver) × (Y g of liver/kg of body weight)(1) CLh = Q × CLint/Q + CLint(2) Eh = CLh/Q(3) where: • CLint = intrinsic clearance (calculated from microsomal incubations) • X = 40 for human, 41.5 for rat and 45 for mouse • Y = 21.4 for human, 40 for rat and 50 for mouse • t1/2 = half-life • CLh = hepatic clearance • Q = liver blood flow rate = 1.24 L/h/kg for human, 4.8 L/h/kg for rat, and 5.4 L/h/kg for mouse • Eh = hepatic extraction ratio • CLh = hepatic clearance

[3] = In vitro liver microsomal metabolism study, rat; conditions: rat liver microsomes
Protocol: as §1, §2

[4] = In vitro liver microsomal metabolism study, mouse; conditions: mouse liver microsomes
Protocol: as §1, §2

[5] = Plasma stability study, human; conditions: pooled plasma, 37 °C, read-out: Plasma Half-Life, t1/2
Protocol: (§3) Briefly, plasma stability was assessed by incubating compounds in the presence of human (pooled) and mouse (pooled) plasma (Bioreclamation, Westbury, NY, USA). All chemicals and reagents including control compounds were purchased from commercial sources such as Sigma-Aldrich or Toronto Research Chemicals. Plasma incubations were conducted by placing plasma (95 μL) in a 96-well microtiter plate and warming to 37 °C for 5 min. The reaction was initiated with the addition of the test article (5 μL of 20 μM), totaling 100 μL in incubation volume. At 0, 15, 30, 60, and 120 min time points, the reactions were terminated with the addition of acetonitrile-containing carbutamide (as an internal standard). The terminated samples were then centrifuged at 2 °C to pellet the protein, and the supernatant was injected onto an LC–MS. The test article was monitored for loss over time and the t1/2 was determined.

[6] = Plasma stability study, mouse; conditions: mouse, pooled plasma, 37 °C, read-out: Plasma Half-Life, t1/2
Protocol: as §3

Structure (SMILES): CC(C)(C)NCC(O)COc1cccc2c1CC(O)C(O)C2 (stereo not shown) [Nadolol, reference compound]
- Papp A→B at 60 min, 5 µM [1]: 0.36 ×10⁻⁶ cm/s
- Papp B→A at 60 min, 5 µM [1]: 1.45 ×10⁻⁶ cm/s
- efflux ratio at 60 min, 5 µM [1]: 4.1

Structure (SMILES): COc1ccc2c(c1)[C@]13CCCC[C@@H]1[C@H](C2)N(C)CC3 [Dextromethorphan, reference compound]
- CLh [2]: 14 mL/min/kg
- Eh (hepatic extraction ratio) [2]: 0.676
- CLint scaled at 1 µM ([2]; 1 μM, NADPH + UDPGA): 43.2 mL/min/kg
- CLh [3]: 71.2 mL/min/kg
- Eh (hepatic extraction ratio) [3]: 0.889
- CLint scaled at 1 µM ([3]; 1 μM, NADPH + UDPGA): 642 mL/min/kg
- CLh [4]: 77.3 mL/min/kg
- Eh (hepatic extraction ratio) [4]: 0.860
- CLint scaled at 1 µM ([4]; 1 μM, NADPH + UDPGA): 552 mL/min/kg

Structure (SMILES): NS(=O)(=O)OC[C@@H]1C[C@@H](n2ccc3c(N[C@H]4CCc5ccccc54)ncnc32)C[C@@H]1O [Pevonedistat, reference compound]
- Papp A→B at 60 min, 5 µM [1]: 3.37 ×10⁻⁶ cm/s
- Papp B→A at 60 min, 5 µM [1]: 63.4 ×10⁻⁶ cm/s
- efflux ratio at 60 min, 5 µM [1]: 18.8

Structure (SMILES): CCOC(=O)[C@H](CCc1ccccc1)N[C@@H](C)C(=O)N1CCC[C@H]1C(=O)O [Enalapril, reference compound]
- half-life at 1 µM [5]: 283 min
- half-life at 1 µM [6]: 30.6 min

Structure (SMILES): Nc1cc(N2CCCCC2)nc(N)[n+]1[O-] [Minoxidil, reference compound]
- Papp A→B at 60 min, 5 µM [1]: 7.81 ×10⁻⁶ cm/s
- Papp B→A at 60 min, 5 µM [1]: 9.78 ×10⁻⁶ cm/s
- efflux ratio at 60 min, 5 µM [1]: 1.3

Structure (SMILES): CC(C)[N+](C)(CCOC(=O)C1c2ccccc2Oc2ccccc21)C(C)C [Propantheline, reference compound]
- half-life at 1 µM [5]: 7.22 min
- half-life at 1 µM [6]: 26 min

Structure (SMILES): CC(C)NCC(O)COc1cccc2ccccc12 (stereo not shown) [Propranolol, reference compound]
- Papp A→B at 60 min, 5 µM [1]: 43.7 ×10⁻⁶ cm/s
- Papp B→A at 60 min, 5 µM [1]: 44.4 ×10⁻⁶ cm/s
- efflux ratio at 60 min, 5 µM [1]: 1
